Test results as given in US7695930B2, “Method for the detection, identification and/or quantification of microoganisms with peptidase activity using phenoxazinone derivatives as enzyme substrates” (Biomerieux, priority 2003, dated 2010).
Where two headings read alike, the source gives them in different places.

Tests used:
Details in all cases: 60 mg/l
Pseudomonas aeruginosa 2 = tested on: Pseudomonas aeruginosa 2
Protocol: (§1) 300 ml of Columbia medium were melted in a waterbath at 100° C. and autoclaved at 121° C. for 15 min. The product was then cooled to 50° C. in a waterbath.
(§2) This medium was separated into 3 flasks of 100 ml, and then, added at 50° C., as substrates, were those of Examples 4 and 6 for which the amino acid is β-alanine (respectively, β-alanine-9-amino-6-carbethoxybenzo[a]phenoxazin-5-one or β-Ala-ACAP and β-alanine-9-amino-6-chlorobenzo[a]phenoxazin-5-one or β-Ala-ACHP), solubilized in DMSO, according to the concentrations indicated in Table 5 below:
(§3) The medium was then poured into Petri dishes.
(§4) Nine microorganism strains derived from the Applicant's collection, suspended in physiological saline, were seeded onto the media prepared in point 14.1 above according to a multipoint inoculation in a proportion of 100 000 cfu/spot. The dishes were incubated at 37° C. for 48 hours. The colonies formed (one colony per strain) were examined visually after incubation for 24 and 48 hours.
(§5) The results are expressed in Table 6 hereinafter according to the rules and the nomenclature stated in paragraph 11.3 and where RP signifies pale pink.

Pseudomonas aeruginosa 3 = tested on: Pseudomonas aeruginosa 3
Protocol: as §1, §2, §3, §4, §5

Pseudomonas aeruginosa 1 = tested on: Pseudomonas aeruginosa 1
Protocol: as §1, §2, §3, §4, §5

[1] = tested on: Escherichia coli (NCTC 10418)
Protocol: as §1, §2, §3, §4, §5

Candida albicans (NCTC) = tested on: Candida albicans (NCTC)
Protocol: as §1, §2, §3, §4, §5

Burkholderia cepacia 1 = tested on: Burkholderia cepacia 1
Protocol: as §1, §2, §3, §4, §5

[2] = tested on: Enteroccus faecalis (NCTC 775)
Protocol: as §1, §2, §3, §4, §5

[3] = tested on: Enterobacter cloacae (NCTC 11936)
Protocol: as §1, §2, §3, §4, §5

Burkholderia cepacia 2 = tested on: Burkholderia cepacia 2
Protocol: as §1, §2, §3, §4, §5

| Substance | color of the colony (Pseudomonas aeruginosa 2; 24 h) | growth diameter (Pseudomonas aeruginosa 2; 24 h) | intensity of coloration, scale 0 to 4 (Pseudomonas aeruginosa 2; 24 h) | growth diameter (Pseudomonas aeruginosa 2; 48 h) | intensity of coloration, scale 0 to 4 (Pseudomonas aeruginosa 2; 48 h) | color of the colony (Pseudomonas aeruginosa 3; 24 h) | growth diameter (Pseudomonas aeruginosa 3; 24 h) | intensity of coloration, scale 0 to 4 (Pseudomonas aeruginosa 3; 24 h) | growth diameter (Pseudomonas aeruginosa 3; 48 h) | intensity of coloration, scale 0 to 4 (Pseudomonas aeruginosa 3; 48 h) | color of the colony (Pseudomonas aeruginosa 1; 24 h) | growth diameter (Pseudomonas aeruginosa 1; 24 h) | intensity of coloration, scale 0 to 4 (Pseudomonas aeruginosa 1; 24 h) | growth diameter (Pseudomonas aeruginosa 1; 48 h) | intensity of coloration, scale 0 to 4 (Pseudomonas aeruginosa 1; 48 h) | growth diameter ([1]; 24 h) | growth diameter ([1]; 48 h) | growth diameter (Candida albicans (NCTC); 24 h) | growth diameter (Candida albicans (NCTC); 48 h) | growth diameter (Burkholderia cepacia 1; 24 h) | further results |
| --- | --- | --- | --- | --- | --- | --- | --- | --- | --- | --- | --- | --- | --- | --- | --- | --- | --- | --- | --- | --- | --- |
| β-alanine-9-amino-6-carbethoxybenzo[a]phenoxazin-5-one [β-Ala-ACAP] | R | 3 mm | 2 | 3 mm | 2 | R | 1 mm | 2 | 2 mm | 3 | R | 3 mm | 1 | 3 mm | 3 | 2 mm | 3 mm | 2 mm | 2 mm | 2 mm | color of the colony (Pseudomonas aeruginosa 2; 48 h): R; color of the colony (Pseudomonas aeruginosa 3; 48 h): R; color of the colony (Pseudomonas aeruginosa 1; 48 h): R; growth diameter (Burkholderia cepacia 1; 48 h): 2 mm; growth diameter ([2]; 24 h): 2 mm; growth diameter ([2]; 48 h): 2 mm; growth diameter ([3]; 24 h): 3 mm; growth diameter ([3]; 48 h): 3 mm; growth diameter (Burkholderia cepacia 2; 24 h): 2 mm; growth diameter (Burkholderia cepacia 2; 48 h): 2 mm |
| β-alanine-9-amino-6-chlorobenzo[a]phenoxazin-5-one [β-Ala-ACHP] | R | 2 mm | 2 | 3 mm | 2 | R | 1 mm | 2 | 2 mm | 2 | R | 3 mm | 2 | 3 mm | 2 | 2 mm | 3 mm | 2 mm | 2 mm | 2 mm | growth diameter (Burkholderia cepacia 1; 48 h): 2 mm; growth diameter ([2]; 24 h): 1 mm; growth diameter ([2]; 48 h): 1 mm; growth diameter ([3]; 24 h): 2 mm; growth diameter ([3]; 48 h): 3 mm; growth diameter (Burkholderia cepacia 2; 24 h): 2 mm; growth diameter (Burkholderia cepacia 2; 48 h): 2 mm |
